Source: US9687432B2, “Antimicrobial bispyridine amine compositions and uses” (LONZA INC., priority 2012, dated 2017)
Counter-ions that a name gives are not always drawn. One block for each molecule: values may come before it.

What was measured:
Foam height test = type: physicochemical; conditions: for foam height, 30 sec / foam height, 1 min / foam height, 2 min / foam height, Initial Reading: 0.5 grams in 49.5 ml DI water; for foam height, 30 sec / foam height, 1 min / foam height, 2 min: 100 ml graduated cylinder; for foam height, Initial Reading: read in 100 ml graduated cylinder with 1 ml line increments; for Type of Foam: 0.5 grams of active in 49.5 ml DI water, blended 1 minute
Experimental: The testing was performed on samples containing octenidine dihydrochloride, octenidine distearate, PHMB HCl and the chloride salts benzalkonium chloride, benzethonium chloride, and cetylpyridinium chloride.
A 250 ml beaker was filed with 49.5 ml of deionized (DI) water for each sample. Then, 0.5 grams of the active was added to the beaker. Each solution was blended with a Bamix® wand homogenizer/mixer for 1 minute. The solution was then poured into a 100 ml graduated cylinder with 1 ml line increments. The height of the foam was documented at an initial, 30 second, 1 minute, and 2 minute time point.

Paecilomyces sp. = assay: Minimum Inhibitory Concentration (MIC) test, 96-well microtiter plate; type: cell-based; conditions: 48 hrs at 36° C., Sabouraud Dextrose Broth
Experimental: (§1) MICs for the organisms were determined using a standard 96-well microtiter plate assay in Tryptic Soy Broth (TSB) or Sabouraud Dextrose Broth (SDB). A stock solution (2500 ppm) of Octenidine distearate was prepared in methanol and stock solutions (2500 ppm) of Octenidine dihydrochloride and PHMB were prepared in absolute ethanol. […] Fungal inocula were grown up on Sabouraud Dextrose Agar plates (yeast) or Potato Dextrose Agar plates (mold) and mold spores and yeast cells were adjusted to approximately 100,000 per milliliter in Sabouraud Dextrose Broth (pH 5.6). Bacterial and fungal cultures were used to inoculate the serially diluted antimicrobials in the 96 well microplate and the plate was then incubated for 48 hrs at 36° C. The lowest concentration of test compound inhibiting growth at 48 hrs. (as determined by visual inspection) was recorded as the Minimum Inhibitory Concentration (MIC)

LB penicillium sp. = assay: as above; type: cell-based; conditions: 48 hrs at 36° C., Sabouraud Dextrose Broth
Experimental: as §1

[1] = tested on: Pseudomonas aeruginosa (15442); assay: as above; type: cell-based; conditions: 48 hrs at 36° C., visual inspection
Experimental: as §1

[2] = tested on: Penicillium pinophilium (11797); assay: as above; type: cell-based; conditions: 48 hrs at 36° C., Sabouraud Dextrose Broth
Experimental: as §1

[3] = tested on: Staphylococcus aureus (6538); assay: as above; type: cell-based; conditions: 48 hrs at 36° C., visual inspection
Experimental: as §1

[4] = tested on: Aureobasidium pullulans (9348); assay: as above; type: cell-based; conditions: 48 hrs at 36° C., Sabouraud Dextrose Broth
Experimental: as §1

[5] = tested on: Aspergillus niger (16404); assay: as above; type: cell-based; conditions: 48 hrs at 36° C., Sabouraud Dextrose Broth
Experimental: as §1

[6] = tested on: Klebsiella pneumoniae (4352); assay: as above; type: cell-based; conditions: 48 hrs at 36° C., visual inspection
Experimental: as §1

[7] = tested on: Pseudomonas aeruginosa (9027); assay: as above; type: cell-based; conditions: 48 hrs at 36° C., visual inspection
Experimental: as §1

Bacillus subtilus (6633) = assay: as above; type: cell-based; conditions: 48 hrs at 36° C., visual inspection
Experimental: as §1

[8] = tested on: Enterobacter gergoviae (33028); assay: as above; type: cell-based; conditions: 48 hrs at 36° C., visual inspection
Experimental: as §1

Escherichia coli (10536) = assay: as above; type: cell-based; conditions: 48 hrs at 36° C., visual inspection
Experimental: as §1

[9] = tested on: Gliocladium virens (9645); assay: as above; type: cell-based; conditions: 48 hrs at 36° C., Sabouraud Dextrose Broth
Experimental: as §1

[10] = tested on: Enterococcus hirae (8043); assay: as above; type: cell-based; conditions: 48 hrs at 36° C., visual inspection
Experimental: as §1

Candida albicans (10231) = assay: as above; type: cell-based; conditions: 48 hrs at 36° C., Sabouraud Dextrose Broth
Experimental: as §1

[11] = tested on: EpiOcular™ Tissue Model (OCL-200); assay: MatTek EpiOcular MTT Viability Assay (ocular irritancy); type: cell-based, human
Experimental: The MatTek EpiOcular™ MTT Viability Assay (MatTek Corp.) was utilized to assess ocular irritancy and toxicology of octenidine distearate and octenidine dihydrochloride. The assay was performed using the MatTek EpiOcular™ Tissue Model (OCL-200) as well as the Methyl thiazole tetrazolium (MT) Kit (MT-100). The EpiOcular™ Tissue Model closely parallels human ocular tissue, thus providing a useful in vitro method to assess ocular irritancy and toxicology.
MTT Reduction: 704 μl of mineral oil were heated at 70° C. for 10 minutes.
0.3% Triton® X-100 (MatTek) (clear liquid) was used as a positive control. Tissue culture water (TCH20) (Sigma) (clear liquid) was used as a negative control. Mineral oil (Sigma) (clear liquid) was used as a vehicle control.
Before use, tissues were incubated (37° C.±1° C., 5%±1% CO2) with assay medium (MatTek) for a one-hour equilibration. Equilibration medium was replaced with fresh medium before dosing.
The test articles were diluted as described in the sample preparation above. 100 μl of the test article dilution were mixed with 1 ml of MTT solution (1 mg/ml MTT diluted in Dulbecco's Modified Eagle's Medium (DMEM). A negative control (100 μl of tissue culture water) and a vehicle control (100 μl of mineral oil) were tested concurrently. The solutions were incubated at room temperature in the dark for 60 minutes. After incubation, the solutions were visually inspected for purple coloration, which is a positive indication that the test article reduced MTT. Since tissue viability is based on MTT reduction, direct reduction by a test article can exaggerate viability, making a test article seem less irritating that it really is. […]
At the end of the selected exposure periods, each EpiOcular™ tissue was rinsed with phosphate buffered saline (PBS), soaked for 10 minutes in assay medial and transferred to a 24-well plate containing 300 μl of MTT solution (1 mg/ml MTT in DMEM). […] An aliquot of the extracted MTT formazan was measured at 540 nm using a plate reader (μQuant Plate Reader, Bio-Tek Instruments, Winooski, Vt.), subtracting the absorbance at a reference wavelength of 690 nm.
The mean absorbance value for each time point was calculated from the optical density (OD) of the duplicate samples and expressed as percent viability for each sample using the following formula: % viability=100×(OD sample/OD negative control or vehicle control) The ET50, the time at which the EpiOcular™ tissue viability was reduced 50% compared to control tissues, was then determined using a macro in Microsoft Excel 5.0, provided by MatTek, using the equation: V=a+b log t Where V=percent viability, t=time in hours, and a and b are constants that can be determined by using the viability data for two different exposure times of the text article to the tissue.

foam height, 30 sec (Foam height test): 60
foam height, 1 min (Foam height test): 56
foam height, 2 min (Foam height test): 52
foam height, Initial Reading (Foam height test): 70
Type of Foam (Foam height test): Loose
Minimum Inhibitory Concentration (MIC) (Paecilomyces sp.): 156.25 ppm
Minimum Inhibitory Concentration (MIC) (LB penicillium sp.): 2.44 ppm
Minimum Inhibitory Concentration (MIC) [1]: 19.53 ppm
Minimum Inhibitory Concentration (MIC) [2]: 2.44 ppm
Minimum Inhibitory Concentration (MIC) [3]: 2.44 ppm
Minimum Inhibitory Concentration (MIC) [4]: 1.22 ppm
Minimum Inhibitory Concentration (MIC) [5]: 9.77 ppm
Minimum Inhibitory Concentration (MIC) [6]: 2.44 ppm
Minimum Inhibitory Concentration (MIC) [7]: 4.88 ppm
Minimum Inhibitory Concentration (MIC) (Bacillus subtilus (6633)): 1.22 ppm
Minimum Inhibitory Concentration (MIC) [8]: 4.88 ppm
Minimum Inhibitory Concentration (MIC) (Escherichia coli (10536)): 2.44 ppm
Minimum Inhibitory Concentration (MIC) [9]: 2.44 ppm
Minimum Inhibitory Concentration (MIC) [10]: 4.88 ppm
Minimum Inhibitory Concentration (MIC) (Candida albicans (10231)): 0.61 ppm
Structure (SMILES): CCCCCCCCCCCCCCCCCC(=O)O.CCCCCCCCCCCCCCCCCC(=O)O.CCCCCCCCN=c1ccn(CCCCCCCCCCn2ccc(=NCCCCCCCC)cc2)cc1 [Octenidine distearate, octenidine distearate]
ET50 [11]: >256.0 min
ET50 (min) [11]: greater than 256.0 min
Irritancy Classification [11]: Non-Irritating, minimal

foam height, 30 sec (Foam height test): 80
foam height, 1 min (Foam height test): 78
foam height, 2 min (Foam height test): 70
foam height, Initial Reading (Foam height test): 86
Type of Foam (Foam height test): Slightly loose
MIC (Paecilomyces sp.): 78.1 µg/mL
MIC (LB penicillium sp.): 0.61 µg/mL
MIC [1]: 1.22 µg/mL
MIC [2]: < 0.31 µg/mL
MIC [3]: 0.61 µg/mL
MIC [4]: 0.61 µg/mL
MIC [5]: 1.22 µg/mL
MIC [6]: 0.61 µg/mL
MIC [7]: 1.22 µg/mL
MIC (Bacillus subtilus (6633)): 0.61 µg/mL
MIC ([8]; Pluralibacter gergoviae): 1.22 µg/mL
MIC (Escherichia coli (10536)): 0.61 µg/mL
MIC ([9]; Trichoderma virens): < 0.31 µg/mL
MIC [10]: 0.61 µg/mL
MIC (Candida albicans (10231)): 0.31 µg/mL
Structure (SMILES): CCCCCCCCN=c1ccn(CCCCCCCCCCn2ccc(=NCCCCCCCC)cc2)cc1 [Octenidine HCl, Octenidine dihydrochloride]
Irritancy Classification [11]: Severe
